This note sets out measurements from PubChem BioAssay (NCI).

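Growth conditions: 96-well plates. Treatment: test compound, 48 hours, 5 concentrations. Analysis: linear interpolation between bracketing concentrations; unreached endpoints set to highest concentration. GI50 marks 50% less growth. At the TGI there is no net growth.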

Test systems include 786-0 renal; HT29 colon; KM12 colon; LOX IMVI melanoma; MDA-MB-231 breast; NCI/ADR-RES ovarian; SF-295 CNS; SF-539 CNS; SNB-19 CNS; UO-31 renal.
Holding throughout (assay): NCI anticancer screen, dose series, 48 h

Regarding `CCC[C@H](C)C[C@H](C)C[C@H](C)/C=C(\C)[C@@H](O)[C@@H](C)C(=O)CC`, the TGI was found to be 35.7 µM in the assay with 786-0 renal; 37 µM in the assay on HT29 colon; 42 µM in the assay on KM12 colon; 37.8 µM in the assay with LOX IMVI melanoma; 44.6 µM in the assay on MDA-MB-231 breast; 30.9 µM in the assay on NCI/ADR-RES ovarian. Besides, the TGI with SF-295 CNS is 37.9 µM; in the assay with SF-539 CNS it was 37 µM; with SNB-19 CNS it was 36.1 µM; with UO-31 renal, 41.7 µM.

On to `Cc1ccc(/C(O)=C/C(=O)C(=O)NN=C(c2ccccc2)c2ccccc2)cc1`, for which the TGI in the assay with 786-0 renal, in the assay with HT29 colon, in the assay with KM12 colon, in the assay on LOX IMVI melanoma, in the assay on MDA-MB-231 breast and with NCI/ADR-RES ovarian was more than 100 µM throughout. Further, the TGI in the assay on SF-295 CNS, with SF-539 CNS, with SNB-19 CNS and in the assay with UO-31 renal was more than 100 µM each time.

As for `COC(=O)C1=C(C)N2[C@H](C(=O)O)CO[C@@]2(C)[C@H](C(=O)OC)[C@H]1c1cccc([N+](=O)[O-])c1`, the TGI in the assay on 786-0 renal, with HT29 colon, in the assay with KM12 colon, in the assay with MDA-MB-231 breast, in the assay on NCI/ADR-RES ovarian and in the assay on SF-295 CNS was more than 100 µM in each case. In addition, the TGI in the assay on SF-539 CNS, in the assay on SNB-19 CNS and with UO-31 renal was more than 100 µM throughout.

`Cc1n[nH]c(=O)n1/N=C/c1ccc([N+](=O)[O-])o1`: the TGI with 786-0 renal was determined as 36.3 µM; with HT29 colon it was 30.1 µM; with KM12 colon, 29.3 µM; with LOX IMVI melanoma, 27.1 µM; in the assay on MDA-MB-231 breast, 74.9 µM; in the assay with NCI/ADR-RES ovarian, 70.3 µM. The TGI in the assay on SF-295 CNS is more than 100 µM; with SF-539 CNS, 37.1 µM; with SNB-19 CNS, more than 100 µM; in the assay with UO-31 renal, 30.2 µM.

For the compound `CCN(c1cccc(NC(=S)Nc2ccccc2N(CC)c2cc(-c3ccccc3)no2)c1)c1cc(-c2ccccc2)no1`, the TGI in the assay with 786-0 renal, in the assay with HT29 colon, with KM12 colon, in the assay with LOX IMVI melanoma, in the assay with MDA-MB-231 breast and in the assay with NCI/ADR-RES ovarian was more than 100 µM throughout. The TGI with SF-295 CNS, in the assay with SF-539 CNS, with SNB-19 CNS and in the assay with UO-31 renal was more than 100 µM throughout.

For the compound `CCOc1ccc(-n2nnc3c(N)nc(N)nc32)cc1`, the TGI with 786-0 renal, in the assay with HT29 colon, in the assay on KM12 colon, in the assay with LOX IMVI melanoma, in the assay on MDA-MB-231 breast and in the assay on NCI/ADR-RES ovarian was more than 100 µM throughout. Further, the TGI in the assay on SF-295 CNS, in the assay on SF-539 CNS and in the assay on SNB-19 CNS was more than 100 µM throughout.

For `O=C(CSC1=NCCN1)Nc1ccccc1`, the TGI with 786-0 renal was 50.1 µM; in the assay on HT29 colon it was more than 100 µM; in the assay on KM12 colon, more than 100 µM; with LOX IMVI melanoma, 39.2 µM; in the assay with MDA-MB-231 breast, 50.3 µM; in the assay on NCI/ADR-RES ovarian, 73.6 µM. Besides, the TGI in the assay on SF-295 CNS, with SNB-19 CNS and in the assay with UO-31 renal was more than 100 µM throughout.

Regarding `COc1ccc(N=C2C(=Nc3ccc(OC)cc3)N(c3ccccc3)C(=S)N2N=C=C2Sc3ccccc3N2C)cc1`, the TGI in the assay with 786-0 renal, with HT29 colon, in the assay with KM12 colon, in the assay with MDA-MB-231 breast, in the assay with NCI/ADR-RES ovarian and in the assay with SF-295 CNS was more than 100 µM throughout. In addition, the TGI in the assay with SF-539 CNS, with SNB-19 CNS and in the assay with UO-31 renal was more than 100 µM in each case.

As to `CC1OC(O[C@H]2/C=C/C=C/C=C/C=C/C=C/C=C/C=C/[C@H](C)[C@@H](O)[C@@H](C)[C@H](C)OC(=O)CC(O)CC(O)CCC(O)C(O)CC(O)C[C@]3(O)C[C@H](O)C(C(=O)O)C(C2)O3)C(O)[C@H](N)C1O` (stereo partly drawn), the GI50 was 4.3 µM in the assay on HT29 colon; 6.16 µM in the assay with KM12 colon; 1.79 µM in the assay on LOX IMVI melanoma; 4.24 µM in the assay on MDA-MB-231 breast; 2.1 µM in the assay with NCI/ADR-RES ovarian; 18.6 µM in the assay with SF-295 CNS. In addition, the GI50 in the assay with SF-539 CNS is 2.92 µM; with SNB-19 CNS it was 2.57 µM; with UO-31 renal, 1.4 µM. The TGI in the assay on HT29 colon worked out at 14.7 µM; with KM12 colon, 20.2 µM; in the assay with LOX IMVI melanoma, 3.6 µM; in the assay on MDA-MB-231 breast, 15.7 µM; in the assay with NCI/ADR-RES ovarian it was 5.16 µM; in the assay on SF-295 CNS, 38 µM. Besides, the figures for the TGI in the assay on SF-539 CNS, in the assay on SNB-19 CNS and with UO-31 renal were 11.6 µM, 6.52 µM and 2.76 µM, respectively.

Regarding `CC1=NN(C(=O)CSc2nc3ccc(I)cc3c(=O)n2Cc2ccccc2)C(=O)C1`, the TGI in the assay on 786-0 renal was more than 100 µM; with HT29 colon it was more than 100 µM; in the assay with KM12 colon, more than 100 µM; in the assay on LOX IMVI melanoma it was more than 100 µM; in the assay with MDA-MB-231 breast it was more than 100 µM; in the assay on NCI/ADR-RES ovarian, 58.3 µM. Besides, the TGI was 63.9 µM in the assay with SF-295 CNS, more than 100 µM with SF-539 CNS and more than 100 µM in the assay on SNB-19 CNS.

Regarding `CN(C)CCCN1c2ccccc2CCc2ccc([N+](=O)[O-])cc21`, the TGI in the assay on 786-0 renal is more than 100 µM; in the assay on HT29 colon it was 46.5 µM; with KM12 colon it was 33.8 µM; with LOX IMVI melanoma, 31.5 µM; with MDA-MB-231 breast it was more than 100 µM; in the assay with NCI/ADR-RES ovarian, 42.1 µM. The TGI is 34.3 µM in the assay on SF-295 CNS, more than 100 µM in the assay with SNB-19 CNS and 76 µM with UO-31 renal.

`O=C(CC(=O)Nc1ccccc1)N/N=C/c1cc(N=Nc2ccc(Br)cc2)ccc1O`: the TGI in the assay on 786-0 renal, with KM12 colon, in the assay with LOX IMVI melanoma, in the assay with MDA-MB-231 breast, in the assay on NCI/ADR-RES ovarian and with SF-539 CNS was more than 10 µM in each case. Besides, in the assay with UO-31 renal, the TGI is 7.93 µM.

Consider `COc1cccc(NC(=O)C(C#N)=C(SC)SC)c1`, for which the TGI in the assay with 786-0 renal, in the assay on HT29 colon, in the assay with KM12 colon, with LOX IMVI melanoma, in the assay on MDA-MB-231 breast and in the assay on NCI/ADR-RES ovarian was more than 100 µM throughout. Further, the TGI in the assay with SF-295 CNS, in the assay with SF-539 CNS and in the assay on SNB-19 CNS was more than 100 µM in each case.
